Reference: patent publication US8227424B2, “Collagen peptide, dipeptide and malady inhibitor” (Nitta Gelatin Inc., priority 2008, dated 2012)
Square brackets hold non-standard residues; d marks the D form. Ends that are not written are not given here. Peptide text beside a SMILES is read from it. Hyp = O=C(O)[C@@H]1C[C@@H](O)CN1

Assays:
[1] = tested on: precursory cartilage cell stock ATDC5; experiment: Evaluation Test 2-2: ALP inhibition activity of Pro-Hyp and comparisons; format: cell-based; conditions: ATDC5, 2.5 mM, after 5 days culture, N group = 1.0
Procedure: The aforementioned PC (PC group), FC (FC group) and PC-CA (PC-CA group) were used, and each collagen peptide was added to a precursory cartilage cell stock ATDC5 culture liquid so as to be 0.1% in end concentration. After 5 days from the culture, each inhibition activity of alkaline phosphatase (ALP) being a marker enzyme for hypertrophied cartilages and calcification was examined. For comparison, the ALP inhibition activity when adding no peptide (N group), the ALP inhibition activity when using peptone (Pe group) of 0.1% in end concentration, and the ALP inhibition activity when using the aforementioned PC-Cont (PC-Cont group) and PC-CA-Cont (PC-CA-Cont group) were also examined.
The ALP inhibition activity was examined in the same way as of evaluation test 2-1 except that: a dipeptide Pro-Hyp as synthesized by a solid-phase method (produced by PH Japan) ([Pro-Hyp] group) was used, the amount of its addition was changed to 2.5 mM and, for comparison, no peptide was added (N group) or glycine being a free amino acid (Gly group), proline being a free amino acid (Pro group), hydroxyproline being a free amino acid (Hyp group), a free amino acid mixture of proline and hydroxyproline ([Pro+Hyp] group), a free amino acid mixture of glycine, proline and hydroxyproline ([Gly+Pro+Hyp] group), and a tripeptide Pro-Hyp-Gly as synthesized by a solid-phase method (produced by PH Japan) ([Pro-Hyp-Gly] group) were used.

[2] = tested on: osteoclasts (primary mouse bone marrow cell culture); experiment: Evaluation Test 1-1: osteoclast differentiation culture on plastic Petri dish (TRAP); format: cell-based; conditions: 625 μM end concentration, after 6 days culture, control (blank) = 100, n = 6
Procedure: The evaluation was carried out in accordance with Kobayashi Y. et al.'s osteoclast differentiation culture method [J. Bone Miner. Metab. (2004) 22: p. 318-328].
That is to say, the Hyp-Gly and a 1:1 mixture of the Hyp-Gly and the Pro-Hyp were used, and each of them was added to a primary mouse bone marrow cell culture liquid so as to be 625 μM in end concentration. After 6 days from the culture, each inhibition activity of tartaric acid resistant acid phosphatase (TRAP) being a marker enzyme was examined. In the same way, the TRAP inhibition activity when using the other dipeptides (Pro-Hyp, Ala-Hyp, Leu-Hyp, Phe-Hyp, Ser-Hyp), the tripeptide (Pro-Hyp-Gly) and the amino acids (Pro, Hyp) was examined. Furthermore, as a control, the TRAP inhibition activity when adding no peptide (blank) was also examined.

[3] = tested on: osteoblast stock MC3T3-E1; experiment: Evaluation Test 1-2: promotion of differentiation and activation of osteoblasts (ALP); format: cell-based; conditions: MC3T3-E1, 2.5 mmol/L end concentration, after 10 days culture, control (blank) = 100
Procedure: Each of dexamethasone (end concentration: 1 nmol/L), β-glycerophosphoric acid (end concentration: 5 mmol/L), and ascorbic acid (end concentration: 100 μg/mL) was added to an osteoblast stock MC3T3-E1 culture liquid, and then the Hyp-Gly and a 1:1 mixture of the Hyp-Gly and the Pro-Hyp were used, and each of them was added to the aforementioned culture liquid so as to be 2.5 mmol/L in end concentration. After 10 days from the culture, each promotion activity of alkaline phosphatase (ALP) being a marker enzyme for differentiation and calcification of osteoblasts was examined. In the same way, the ALP promotion activity when using the other dipeptides (Pro-Hyp, Ala-Hyp, Leu-Hyp, Phe-Hyp, Ser-Hyp), the tripeptide (Pro-Hyp-Gly) and the amino acids (Pro, Hyp) was examined. Furthermore, as a control, the ALP promotion activity when adding no peptide (blank) was also examined.

[4] = tested on: precursory cartilage cell stock ATDC5; experiment: Evaluation Test 1-3: inhibition of degeneration of cartilage cells (ALP); format: cell-based; conditions: ATDC5, 2.5 mmol/L end concentration, after 5 days culture, control (blank) = 100
Procedure: The Hyp-Gly, a 1:1 mixture of the Hyp-Gly and the Pro-Hyp and a 1:1:1 mixture of the Hyp-Gly, the Pro-Hyp and the Ala-Hyp were used, and each dipeptide was added to a precursory cartilage cell stock ATDC5 culture liquid so as to be 2.5 mmol/L in end concentration. After 5 days from the culture, each inhibition activity of alkaline phosphatase (ALP) being a marker enzyme for hypertrophied cartilages and calcification was examined. In the same way, the ALP activity when using the other dipeptides (Pro-Hyp, Ala-Hyp, Leu-Hyp, Phe-Hyp, Ser-Hyp), the tripeptide (Pro-Hyp-Gly) and the amino acids (Pro, Hyp) was examined. Furthermore, as a control, the ALP activity when adding no peptide (blank) was also examined.

[5] = tested on: osteoclasts; experiment: Evaluation Test 1-1: Pit assay, osteoclasts cultured on dentin slices; format: cell-based, mouse; conditions: control (blank) = 100, n = 6; for Relative number (%) of TRAP positive multinucleate giant cells (osteoclasts) in culture on dentin slices: culture about 1 week on dentin slices; for Relative number (%) of Pit: number of absorption pits on dentin slices, culture about 1 week
Procedure: In addition, the degree of inhibition of differentiation and activation of osteoclasts by the various peptides and amino acids was evaluated by the following Pit assay. That is to say, the Pit assay where osteoclasts were cultured on […] was carried out in accordance with Kakudo S, et al. (1996). J. Bone Miner. Metab. 14: 129-136, specifically, as follows.
Precursory cells of osteoclasts derived from young mouse […] were freeze-preserved at −80° C. together with a bone marrow stroma cells-containing suspension in the presence of 10% DMSO, thereby making matured osteoclasts extinct.
These cells of 2.0×10^5 in number were seeded into each well of a 96-well plate where dentin slices were set, and each peptide to be tested was added to the culture liquid, and culture was carried out at 37° C. in 5% CO2 for about 1 week. Thereafter, cells were removed from the dentin slices by a silicon-made rubber POLICEMAN, and then the dentin slices were dyed with an […] for several minutes. Hereupon, the number of TRAP dyeing positive multinucleate giant cells (osteoclasts) was counted by the TRAP dyeing, and the number relative to the number of cells in the control (blank) was calculated. Thereafter, the Pit number (number of absorption pits) by osteoclasts was counted under a microscope, and the degree of inhibition of activity of osteoclasts by each peptide to be tested was indicated by the ratio relative to the blank (control).

[6] = in vivo; conditions: male, Wister, rat, po, 215 nmol/10 mL
Procedure: (§1) Wister strain male rats (170 g) were caused to go on a fast of one night and then subjected to experiments.
(§2) As a test method, a cannula was equipped to a heart and portal vein of each rat, and one-directional perfusion was carried out. The perfusion liquid being used was prepared in a way that to a Krebs-Ringer bicarbonate solution (KRB solution, pH 7.4) comprising 9.0 g of NaCl, 8 mL of 5.75% KCl, 2 mL of 10.55% KH2PO4, 2 mL of 19% MgSO4, 2.73 g of NaHCO3, 3.43 g of glucose and 1255 mL of water, there was added 10 g of bovine serum albumin, 0.5 mL of dexamethasone (0.123 mg/mL) and 0.5 mL of noradrenaline (0.024 mg/mL) relative to 500 mL of the aforementioned KRB solution.
(§3) An amount of 0.5 mL of 30% sulfosalicylic acid was added to 5.0 mL of perfusion sample liquid taken from portal vein, and the resultant mixture was vigorously stirred and then left in a refrigerator for one night. This sample was centrifuged at 3000 rpm for 10 minutes to remove protein.
(§4) Furthermore, 3.0 mL of the aforementioned centrifugal supernatant was weighed out and placed into a screw opening test tube, and thereto an equivalent of concentrated hydrochloric acid was added to carry out hydrolysis at 110° C. for 24 hours. Concentration to dryness was carried out with an evaporator to remove hydrochloric acid, and then the residue was dissolved into 5 mL of distilled water, and thereto several drops of saturated lithium hydroxide solution were added to adjust pH to the range of 5 to 7, and the volume was adjusted to 10 mL. […] A value obtained by subtracting the free type Hyp amount before hydrolysis from the total Hyp amount after hydrolysis is a peptide-form Hyp amount.
(§5) Analysis of the dipeptides in the perfusion liquid was carried out by reversed-phase HPLC analysis. As HPLC apparatus, LCSS-905 system produced by JASCO Corporation comprising a liquid-feeding pump, a decassa, an autosamplor, a column oven, ultraviolet spectrophotometer, a printer and a system controller was used. As the reversed-phase column, Nova Pak C18 (3.9×150 mm) was used.
(§6) A linear-gradient moving bed of a 0.1% TFA-containing acetonitrile-water system was used, the injection amount of the sample was 70 μL, and the flow rate was 1 mL/min.
(§7) As HPLC apparatus, U980HPLC (produced by JASCO Corporation) was used. This apparatus was equipped with an ODS (C18) column (Mightysil RP-18, 2×250 mm, produced by Kanto Chemical Co Ltd). The moving bed solvent was a 0.2% formic acid-containing acetonitrile-water system, and the concentration was raised from 0% to 40% acetonitrile by linear gradient in 40 minutes, and washing was carried out with 100% acetonitrile for 10 minutes. The injection amount of the sample was 10 μL, and the column temperature was 40° C.
(§8) The MS analysis was carried out in accordance with an MS/MS system with a Quattro LC mass spectrophotometer (Micromass, Manchester, UK) by a Multiple Reaction Monitoring method of 4 channels. That is to say, an eluate from the HPLC was monitored by m/z being [M+H]^+ and m/s of its fragment ion species.

[7] = rat, in vivo
Procedure: as §1, §2, §3, §4, §5, §6, §7, §8

In the case of `O=C(O)[C@@H]1C[C@@H](O)CN1` [Comparative Example 6, hydroxyproline], the “Relative ALP activity” value [1] is reported as 1.0 ± 0.01, the “Relative area (%) of TRAP positive multinucleate giant cells (osteoclasts) in culture on plastic Petri dish” value (“Relative area (%)” below) [2] is reported as 117 ± 13 % and the “Relative number (%) of TRAP positive multinucleate giant cells (osteoclasts) in culture on plastic Petri dish” value (shortened to “Relative number (%) … on plastic Petri dish”) [2] is reported as 126 ± 4 %. The “Relative value (%) of ALP” value [3] was 103 ± 25%, the “Relative value (%) of ALP” value [4] was 101 ± 1% and the “Relative number (%) of TRAP positive multinucleate giant cells (osteoclasts) in culture on dentin slices” value (shortened to “Relative number (%) … on dentin slices”) [5] was 141 ± 9 %. The “Relative number (%) of Pit” value [5] was 131 ± 11 %.
For `O=C(O)[C@@H]1C[C@@H](O)CN1C(=O)[C@@H]1CCCN1` [Referential Example 1-1, Pro-Hyp] (H-Pro-[Hyp]-OH; N-terminus and C-terminus assumed), the level at time molar [6] was 21.3 µM and the “Intestine absorption, in words” value [7] was “absorbed into intestine extremely rapidly and stably (without being decomposed into amino acids)”.
For Phe-Hyp [Comparative Example 2], the “Relative area (%)” value [2] was 118 ± 21%, the “Relative number (%) … on plastic Petri dish” value [2] was 119 ± 16% and the “Relative value (%) of ALP” value [3] was 109 ± 11%. For the same molecule, the “Relative value (%) of ALP” value [4] was 109 ± 11%, the “Relative number (%) … on dentin slices” value [5] was 98 ± 11% and the “Relative number (%) of Pit” value [5] was 109 ± 15%.
In the case of `O=C(O)CNC(=O)[C@@H]1C[C@@H](O)CN1` [Example 1, Hyp-Gly] (H-[Hyp]-Gly-OH; N-terminus and C-terminus assumed), the level at time molar [6] is reported as 9.8 µM and the “Intestine absorption, in words” value [7] is reported as “absorbed into intestine extremely rapidly and stably (without being decomposed into amino acids)”.
With Pro-[Hyp]-Gly [Comparative Example 4] the “Relative ALP activity” value [1] was 0.8 ± 0.01, the “Relative area (%)” value [2] was 113 ± 11% and the “Relative number (%) … on plastic Petri dish” value [2] was 109 ± 15%. The “Relative value (%) of ALP” value [3] was 103 ± 22%, the “Relative value (%) of ALP” value [4] was 84 ± 14% and the “Relative number (%) … on dentin slices” value [5] was 91 ± 11%. For the same molecule, the “Relative number (%) of Pit” value [5] was 97 ± 13%.
For `NCC(=O)O` [Gly, glycine], the “Relative ALP activity” value [1] was 1.1 ± 0.01.
For Leu-Hyp [Comparative Example 1], the “Relative area (%)” value [2] was 83 ± 27%, the “Relative number (%) … on plastic Petri dish” value [2] was 88 ± 22% and the “Relative value (%) of ALP” value [3] was 92 ± 12%. For the same molecule, the “Relative value (%) of ALP” value [4] was 93 ± 12%, the “Relative number (%) … on dentin slices” value [5] was 101 ± 12% and the “Relative number (%) of Pit” value [5] was 91 ± 11%.
With `O=C(O)[C@@H]1CCCN1` [Comparative Example 5, Proline] the “Relative ALP activity” value [1] was 0.98 ± 0.1, the “Relative area (%)” value [2] was 125 ± 69% and the “Relative number (%) … on plastic Petri dish” value [2] was 119 ± 44%. The “Relative value (%) of ALP” value [3] was 97 ± 15%, the “Relative value (%) of ALP” value [4] was 98 ± 10% and the “Relative number (%) … on dentin slices” value [5] was 119 ± 20%. The “Relative number (%) of Pit” value [5] was 121 ± 23%.
In the case of `C[C@H](N)C(=O)N1C[C@H](O)C[C@H]1C(=O)O` [Referential Example 1-2, Ala-Hyp] (H-Ala-[Hyp]-OH; N-terminus and C-terminus assumed), the level at time molar [6] is reported as 1.2 µM.
With `N[C@@H](CO)C(=O)N1C[C@H](O)C[C@H]1C(=O)O` [Comparative Example 3, Ser-Hyp] (H-Ser-[Hyp]-OH; N-terminus and C-terminus assumed) the level at time molar [6] was 0.7 µM.
